{"source": "paper PMC8403366", "about": "“Functional significance of gain-of-function H19 lncRNA in skeletal muscle differentiation and anti-obesity effects” (Genome Medicine, 2021)", "key": {"[1]": {"tested_on": "iPSC-SkMC", "experiment": "Utrophin immunofluorescence in iPSC-SkMC", "format": "cell-based, human", "settings": "vs AGR-Scr, n = 5", "method": "For myogenic differentiation, iPSCs were differentiated into skeletal muscle cells using Skeletal Muscle Differentiation Kit (Genea Biocells) according to the manufacturer’s protocol. Briefly, iPSCs were plated onto a collagen I coated plate and maintained for 6–10 days in Skeletal Muscle Induction Medium (Genea Biocells) until confluent. Dissociated myogenic precursors were then plated on a collagen I coated plate and cultured in Skeletal Myoblast Medium (Genea Biocells) for 6–8 days. When confluent, cells were maintained in Myotube Medium or Myotube Fusion Medium (Genea Biocells). Cryopreserved stocks of myoblasts Genea002 were obtained from Genea Biocells. […]\nSkeletal muscles were collected and fixed in 10% Neutral Buffered Formalin at 4 °C for 1 h, followed by 10% sucrose/PBS overnight and then 18% sucrose/PBS overnight at 4 °C before being frozen embedded and sectioned. […] Muscle cross-sectional area and fiber numbers were quantified by ImageJ. […] The quantification of IF staining density was performed by Image-pro plus 6.0 (Media Cybernetics) and calculated based on the average staining intensity and the percentage of positively stained cells. To quantify myotube fusion, fusion index was calculated by dividing the number of nuclei in MHC-positive myotubes with ≥ 3 nuclei by the total number of nuclei analyzed in a field."}, "[2]": {"tested_on": "C57BL/6 J mice", "experiment": "Skeletal muscle immunostaining, fiber number/area, fiber typing, SDH staining", "format": "in vivo, mouse", "method": "Skeletal muscles were collected and fixed in 10% Neutral Buffered Formalin at 4 °C for 1 h, followed by 10% sucrose/PBS overnight and then 18% sucrose/PBS overnight at 4 °C before being frozen embedded and sectioned. For immunostaining, frozen cross-sections of muscle were fixed in 4% paraformaldehyde for 5 min, washed, permeabilized with 0.5% Triton X-100, and stained with indicated primary antibodies. After extensive washing in PBS-0.05% Triton X-100, the secondary antibody was added and incubated for 1 h. After extensive washing in PBS-0.05% Triton X-100, nuclei were stained with Vectashield Antifade Mounting Medium with DAPI (Vector Laboratories). Images of laminin-stained fibers were taken by Zeiss microscope. Muscle cross-sectional area and fiber numbers were quantified by ImageJ. Immunostained tissue slides were obtained with Vectra Polaris Multispectral Imaging scanner (PerkinElmer). The quantification of IF staining density was performed by Image-pro plus 6.0 (Media Cybernetics) and calculated based on the average staining intensity and the percentage of positively stained cells. To quantify myotube fusion, fusion index was calculated by dividing the number of nuclei in MHC-positive myotubes with ≥ 3 nuclei by the total number of nuclei analyzed in a field.\nMuscle fiber-type immunofluorescence staining was performed with antibodies to MHC type I (supernatant, DSHB, BA-D5), MHC type IIa (supernatant, DSHB, SC-71), and MHC type IIb (supernatant, DSHB, BF-F3), as previously described. Type IIx fibers are not recognized by these antibodies and appeared black. Succinic dehydrogenase (SDH) staining was used to assess metabolic fiber type switch. Frozen cross-sections of muscle were allowed to equilibrate to room temperature and then incubated in a solution containing Nitroblue tetrazolium and sodium succinate for 20 min. Sections were washed 3 times in PBS, dehydrated in ethanol, and mounted with an aqueous mounting medium (Vector Laboratories). The antibodies used are listed in the Additional file 3: Table S3."}, "[3]": {"settings": "HFD-fed mice, staining intensity, n = 8"}, "[4]": {"settings": "WT mice, 1 mg/kg i.p. every 3 days, 12 weeks, immunofluorescence, n = 8"}, "[5]": {"settings": "WT mice, MHC isoform immunolabeling, vs AGR-Scr, n = 5"}}, "data": [{"substance": "N-terminal-ELTNEIPAELTNEIPA-Linker-5'-[2’-F-C][2’-F-U][2’-F-C][2’-F-U][2’-F-U][2’-F-U][2’-F-A][2’-F-U][2’-F-U][2’-F-U][2’-F-C][2’-F-U][2’-F-G][2’-F-A][2’-F-G][2’-F-C][2’-F-U][2’-F-U][2’-F-U][2’-F-C][2’-F-C][2’-F-U][2’-F-A][2’-F-U][2’-F-C][2’-F-U][2’-F-U][2’-F-U][2’-F-C][2’-F-C]-3' [AGR-H19-Rgof]", "values": [{"measurement": "utrophin protein status", "setting": "[1]", "result": "elevated"}, {"measurement": "fiber area in TA", "setting": "[2]; HFD-fed mice, n = 10, 9", "result": "increased"}, {"measurement": "Ub-DMD in TA", "setting": "[2]; [3]", "result": "reduced"}, {"measurement": "expression of DMD in TA", "setting": "[2]; [3]", "result": "increased"}, {"measurement": "DMD protein status in TA", "setting": "[2]; [4]", "result": "increased DMD protein status"}, {"measurement": "DRP2 protein status in TA", "setting": "[2]; [4]", "result": "improved protein status"}, {"measurement": "nNOS protein status in TA", "setting": "[2]; [4]", "result": "improved protein status"}, {"measurement": "β-dystroglycan protein status in TA", "setting": "[2]; [4]", "result": "improved protein status"}, {"measurement": "fast glycolytic fiber type IIb in QUAD, SOL and TA", "setting": "[2]; [5]", "result": "substantial shift toward"}, {"measurement": "percentage of fast oxidative fiber type IIa in QUAD, SOL and TA", "setting": "[2]; [5]", "result": "reduced percentage"}, {"measurement": "SDH+ fibers in QUAD", "setting": "[2]; WT mice, vs AGR-Scr, n = 5", "result": "reduced SDH+"}, {"measurement": "SDH+ in TA and GAS", "setting": "[2]; WT mice, vs AGR-Scr, n = 5", "result": "minimally altered"}, {"measurement": "SDH+ muscle staining in SOL and EDL", "setting": "[2]; WT mice, vs AGR-Scr, n = 5", "result": "increased SDH+"}, {"measurement": "type I fibers in SOL", "setting": "[2]; WT mice, vs AGR-Scr, n = 5", "result": "marginally reduced"}, {"measurement": "type II fibers in SOL", "setting": "[2]; WT mice, vs AGR-Scr, n = 5", "result": "increased"}, {"measurement": "utrophin protein status in the quadriceps (QUAD)", "setting": "[2]; WT mice, vs AGR-Scr, n = 8", "result": "increased"}, {"measurement": "muscle fiber area", "setting": "[2]; WT mice, vs Scr mimics", "result": "increased"}, {"measurement": "number of muscle fibers (SOL, EDL, TA, GAS, QUAD)", "setting": "[2]; WT mice, vs Scr mimics, n = 5", "result": "increased number"}]}]}
